# Earlier results in publication PMC10582684 (RSC Advances, 2023).
# Like-named read-outs stand apart in the source and are kept apart here.
# How the values were obtained:
# [1] = literature comparison
# [2] = oligopeptides from ginkgo seed and bighead carp, high content of Pro
# [3] = peptides from walnut protein with Lys in C-terminal tripeptide
molecule,measurement,setting,value
WNGPKGV,Inhibiting ability on ACE (in words),ACE; peptide from corn protein with Lys in C-terminal tripeptide,excellent inhibiting ability on ACE
O=C(O)CN(CCN(CC(=O)O)CC(=O)O)CC(=O)O [ethylenediamine tetraacetic acid],Chelating ability towards zinc ions,[1],57.17 mg/g
LSMSFPPF,Stability against gastrointestinal enzymic digestion (in words),[2],excellent stability
VPKIPPP,Stability against gastrointestinal enzymic digestion (in words),[2],excellent stability
PPKP,Inhibiting ability on ACE (in words),ACE; [3],excellent inhibiting ability on ACE
PKPP,Inhibiting ability on ACE (in words),ACE; [3],excellent inhibiting ability on ACE
TGLL,Chelating ability towards zinc ions,[1],2.27 mg/g
YIRLHF,Inhibitory kinetics on ACE,ACE; peptide from bighead carp protein,competitive inhibitory kinetics
PPSEPTKL,Stability against gastrointestinal enzymic digestion (in words),[2],excellent stability
